How the values were obtained:
stomach acid secretion = conditions: rat model, cited from earlier work
[1] = open label observation for control of heart burn in volunteers; type: in vivo, human; conditions: open label observations in people
Description: The preferred ingredients of the dietary supplement formulations for preventing or treating or managing upper digestive disorders referred to in this patent including but not limited to acid related disease, H. pylori infection and ulcerogenic medications, drugs or substances such as alcohol, tobacco smoke or any other damaging agent that is ingested or absorbed in to the body that may cause upper digestive disturbance are listed in one formulation that has undergone open label observation for the control of the symptom heart burn in six volunteers with recurrent heart burn and this formulation was made in several batches of a chewable tablet with the following ingredients that have been modified from time to time. These chewable tablets contain the following ingredients with amounts listed in two chewable tablets. The range of the ingredients has been made in different dosage amounts of each ingredient and tested in at least two volunteers for each of six batches of varying dosage of ingredients. Each batch consistently relieved symptoms of mild moderate or severe heart burn in open labeled observations in volunteers with symptoms of gastresophageal reflux disease.

gastric acid secretion = conditions: cited from earlier work

Row | Compound | stomach acid secretion (stomach acid secretion; at a certain dosage level) | stomach ulcers (stomach acid secretion) | dyspepsia and heartburn [1] | development of stomach ulcers (gastric acid secretion; animals exposed to cold water immersion or restraint) | gastric acid secretion (gastric acid secretion; animals) | formation of gastric ulcers (gastric acid secretion; pylorus-ligated animals)
1 | O=c1oc2c(O)c(O)cc3c(=O)oc4c(O)c(O)cc1c4c23 [ellagic acid] | stomach acid secretion was blocked | ulcers could be prevented in part | has helped people with dyspepsia and heartburn |  |  | 
2 | salvianolic acid |  |  |  | prevents the development of stomach ulcers | reduce gastric acid secretion | reduce the formation of gastric ulcers

From patent US20050238731A1, “Composition and method for treating the effects of diseases and maladies of the upper digestive tract” (priority 2003, published 2005)
